Laboratory results: PMC10329608, “Investigation of the structure-activity relationship at the N-terminal part of minigastrin analogs” (EJNMMI Research, 2023)
“Also recorded” adds a separate entry of the source. Like-named read-outs stand apart in the source and are kept apart here. Starred links: 1 amine or outer side, 2 acyl side, 3 side chain; linkers in the order of their positions; H or OH if unused. Non-standard residues stand in square brackets, D forms with d. Residues, ends and D or L forms follow the SMILES beside them. *: point of attachment. DOTA = O=C(O)CN1CCN(CC(=O)O)CCN(CC(=O)*)CCN(CC(=O)O)CC1; d(γGlu) = O=C(O)[C@@H](CCC(=O)[*:2])N[*:1]; 1Nal = N[C@@H](Cc1cccc2ccccc12)C(=O)O; 2Nal = N[C@@H](Cc1ccc2ccccc2c1)C(=O)O; PEG5 = NCCOCCOCCOCCOCCOCCC(=O)O; NMeNle = CCCC[C@H](NC)C(=O)O; Nle = CCCC[C@H](N)C(=O)O

What was measured:
CCK-2R = target: T1, CCK-2R (Rattus norvegicus, UniProt P30553); assay: Competitive binding (IC50) on AR42J cells against [177Lu]Lu-DOTA-PP-F11N; conditions: for IC50 / CCK-2R affinity (in words): AR42J cells; for IC50: 3 h; for fold elevated IC50 value versus N-methylated tetrapeptides: B1 versus B3, B5 and B7 versus B3, B4 and B6; for CCK-2R affinity (in words): tetrapeptides
T1 construct: endogenous in cells; host or cells: AR42J cells
T1 sequence (P30553 1-452): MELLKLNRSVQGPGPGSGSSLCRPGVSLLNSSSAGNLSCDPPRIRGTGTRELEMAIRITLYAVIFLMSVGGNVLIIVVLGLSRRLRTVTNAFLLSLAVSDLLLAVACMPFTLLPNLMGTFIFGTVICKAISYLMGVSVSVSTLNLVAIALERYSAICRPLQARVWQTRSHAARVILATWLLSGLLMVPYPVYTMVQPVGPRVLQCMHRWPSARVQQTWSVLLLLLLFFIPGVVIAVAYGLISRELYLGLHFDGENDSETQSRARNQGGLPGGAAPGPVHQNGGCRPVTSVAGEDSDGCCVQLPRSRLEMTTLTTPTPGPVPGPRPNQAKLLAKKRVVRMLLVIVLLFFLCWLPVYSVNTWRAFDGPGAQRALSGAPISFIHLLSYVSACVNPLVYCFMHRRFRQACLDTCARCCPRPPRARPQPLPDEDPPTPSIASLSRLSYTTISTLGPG
Experimental: IC50 values of all compounds were determined according to a previously published procedure. In brief, competitive binding studies were performed via co-incubation of increasing concentrations of the peptide of interest (10^−10 to 10^–4 M, in triplicate) together with the reference compound [^177Lu]Lu-DOTA-PP-F11N (0.3 pmol/well) on AR42J cells (2 × 10^5 cells per 1 mL/well) at 37 °C for 3 h. Table S1. CCK-2R affinity and lipophilicity data of the compounds evaluated. Affinity data were determined on AR42J cells (2.0 x 10^5 cells/well/mL) and [^177Lu]Lu-DOTA-PP-F11N (0.3 pmol/well) as radiolabeled reference (3 h, 37°C, RPMI 1640, 5 mM L-Gln, 5 mL non-essential amino acids (100x), 10% FCS + 5% BSA (v/v)).

[1] = assay type: physicochemical; conditions: pH 7.4
Experimental: Lipophilicity (depicted as n-octanol-phosphate-buffered saline solution (PBS, pH = 7.4) distribution coefficient, logD7.4) of ^177Lu-labeled minigastrin analogs was evaluated as previously published.

[2] = 2.0 x 10^5 cells/well/mL, [177Lu]Lu-DOTA-PP-F11N 0.3 pmol/well as reference, 37°C, natLu-labeled DOTA peptides, tetrapeptides unlabeled, read-out: IC50

For `CCCC[C@H](NC(=O)[C@@H](N)Cc1c[nH]c2ccccc12)C(=O)N[C@@H](CC(=O)O)C(=O)N[C@@H](Cc1cccc2ccccc12)C(N)=O` [B1, H-Trp-Nle-Asp-1-Nal-NH2] (H-W[Nle]D[1Nal]-NH2), which IC50 (CCK-2R; [2]) is on record?
Its IC50 is 297 ± 15 nM.

What about the “fold elevated IC50 value versus N-methylated tetrapeptides” value (CCK-2R) of the same compound?
The value was 50 fold.

What about the “CCK-2R affinity (in words)” value (CCK-2R) of the same compound?
The value was “significant loss in CCK-2R affinity; also recorded: low CCK-2R affinity”.

With `CCCC[C@H](NC(=O)[C@@H](N)Cc1c[nH]c2ccccc12)C(=O)N[C@@H](CC(=O)O)C(=O)N[C@@H](Cc1ccccc1)C(N)=O` [B2, H-Trp-Nle-Asp-Phe-NH2] (H-W[Nle]DF-NH2) as the compound, how does the IC50 (CCK-2R; [2]) read?
Its IC50 is 466 ± 88 nM.

And the “CCK-2R affinity (in words)” value (CCK-2R)?
Its value is “significant loss in CCK-2R affinity”.

And the “CCK-2R affinity (in words)” value (CCK-2R; listed as H-Trp-Nle-Asp-Phe-NH2)?
Its value is “noticeably decreased CCK-2R affinity”.

Which “CCK-2R affinity (in words)” value (CCK-2R) does the source give for `CCCC[C@@H](C(=O)N[C@@H](CC(=O)O)C(=O)N[C@@H](Cc1cccc2ccccc12)C(N)=O)N(C)C(=O)[C@@H](N)Cc1c[nH]c2ccccc12` [B3, H-Trp-(N-Me)Nle-Asp-1-Nal-NH2] (H-W[NMeNle]D[1Nal]-NH2) here?
The value was “CCK-2R affinities in the low nanomolar range”.

For `CCCC[C@@H](C(=O)N[C@@H](CC(=O)O)C(=O)N[C@@H](Cc1ccccc1)C(N)=O)N(C)C(=O)[C@@H](N)Cc1c[nH]c2ccccc12` [B4, H-Trp-(N-Me)Nle-Asp-Phe-NH2] (H-W[NMeNle]DF-NH2), which “CCK-2R affinity (in words)” value (CCK-2R) is on record?
The value was “CCK-2R affinities in the low nanomolar range”.

Which “fold elevated IC50 value versus N-methylated tetrapeptides” value (CCK-2R) does the source give for `CCCC[C@@H](C(=O)N[C@@H](CC(=O)O)C(=O)N[C@@H](Cc1ccc2ccccc2c1)C(N)=O)N(C)C(=O)[C@@H](N)Cc1c[nH]c2ccccc12` [B5, H-Trp-(N-Me)Nle-Asp-2-Nal-NH2] (H-W[NMeNle]D[2Nal]-NH2) here?
Its value is 3.5- to 19 fold.

For `CCCC[C@@H](C(=O)N[C@@H](CC(=O)O)C(=O)N[C@@H](Cc1ccc(O)cc1)C(N)=O)N(C)C(=O)[C@@H](N)Cc1c[nH]c2ccccc12` [B6, H-Trp-(N-Me)Nle-Asp-Tyr-NH2] (H-W[NMeNle]DY-NH2), which “CCK-2R affinity (in words)” value (CCK-2R) is on record?
The value was “CCK-2R affinities in the low nanomolar range”.

Which “fold elevated IC50 value versus N-methylated tetrapeptides” value (CCK-2R) does the source give for `CCCC[C@@H](C(=O)N[C@@H](CC(=O)O)C(=O)N[C@@H](Cc1c[nH]c2ccccc12)C(N)=O)N(C)C(=O)[C@@H](N)Cc1c[nH]c2ccccc12` [B7, H-Trp-(N-Me)Nle-Asp-Trp-NH2] (H-W[NMeNle]DW-NH2) here?
Its value is 3.5- to 19 fold.

Which logD [1] does the source give for `CCCC[C@@H](C(=O)N[C@@H](CC(=O)O)C(=O)N[C@@H](Cc1cccc2ccccc12)C(N)=O)N(C)C(=O)[C@H](Cc1c[nH]c2ccccc12)NC(=O)CNC(=O)CNC(=O)CNC(=O)CNC(=O)CN1CCN(CC(=O)O)CCN(CC(=O)O)CCN(CC(=O)O)CC1` [[^nat/177Lu]Lu-DOTA-CCK-55, metal not drawn] ({DOTA}-GGGGW[NMeNle]D[1Nal]-NH2) here?
The logD was -2.09 ± 0.07.

What about the logD7.4 [1] of the same compound?
The logD7.4 was “‒2.7 to ‒2.1”.

With `CCCC[C@@H](C(=O)N[C@@H](CC(=O)O)C(=O)N[C@@H](Cc1cccc2ccccc12)C(N)=O)N(C)C(=O)[C@H](Cc1c[nH]c2ccccc12)NC(=O)CNC(=O)[C@H](Cc1ccc(O)cc1)NC(=O)CNC(=O)CNC(=O)CN1CCN(CC(=O)O)CCN(CC(=O)O)CCN(CC(=O)O)CC1` [[^nat/177Lu]Lu-DOTA-CCK-56, metal not drawn] ({DOTA}-GGYGW[NMeNle]D[1Nal]-NH2) as the compound, how does the logD [1] read?
Its logD is -1.38 ± 0.07.

What about the logD7.4 [1] of the same compound?
Its logD7.4 is “− 1.9 to − 1.2”.

For `CCCC[C@@H](C(=O)N[C@@H](CC(=O)O)C(=O)N[C@@H](Cc1cccc2ccccc12)C(N)=O)N(C)C(=O)[C@H](Cc1c[nH]c2ccccc12)NC(=O)CNC(=O)CNC(=O)[C@H](C)NC(=O)CNC(=O)CN1CCN(CC(=O)O)CCN(CC(=O)O)CCN(CC(=O)O)CC1` [[^nat/177Lu]Lu-DOTA-CCK-57, metal not drawn] ({DOTA}-GAGGW[NMeNle]D[1Nal]-NH2), which IC50 (CCK-2R; [2]) is on record?
The IC50 was 9.67 ± 1.74 nM.

And the logD [1]?
The logD was -1.94 ± 0.06.

What about the logD7.4 [1] of the same compound?
The logD7.4 was “− 1.9 to − 1.2”.

Which results are given for `CCCC[C@@H](C(=O)N[C@@H](CC(=O)O)C(=O)N[C@@H](Cc1cccc2ccccc12)C(N)=O)N(C)C(=O)[C@H](Cc1c[nH]c2ccccc12)NC(=O)CNC(=O)CNC(=O)CNC(=O)CC[C@@H](NC(=O)CN1CCN(CC(=O)O)CCN(CC(=O)O)CCN(CC(=O)O)CC1)C(=O)O` [[^nat/177Lu]Lu-DOTA-CCK-58, metal not drawn] ({DOTA-d(γGlu)}-GGGW[NMeNle]D[1Nal]-NH2)?
logD [1]: -2.66 ± 0.06; logD7.4 [1]: ‒2.7 to ‒2.1

What does the source list for `CCCC[C@@H](C(=O)N[C@@H](CC(=O)O)C(=O)N[C@@H](Cc1cccc2ccccc12)C(N)=O)N(C)C(=O)[C@H](Cc1c[nH]c2ccccc12)NC(=O)CNC(=O)[C@H](Cc1ccc(O)cc1)NC(=O)[C@H](C)NC(=O)CNC(=O)CN1CCN(CC(=O)O)CCN(CC(=O)O)CCN(CC(=O)O)CC1` [[^nat/177Lu]Lu-DOTA-CCK-59, metal not drawn] ({DOTA}-GAYGW[NMeNle]D[1Nal]-NH2)?
logD [1]: -1.26 ± 0.08; logD7.4 [1]: − 1.9 to − 1.2

Which logD [1] does the source give for `CCCC[C@@H](C(=O)N[C@@H](CC(=O)O)C(=O)N[C@@H](Cc1cccc2ccccc12)C(N)=O)N(C)C(=O)[C@H](Cc1c[nH]c2ccccc12)NC(=O)CNC(=O)[C@H](Cc1ccc(O)cc1)NC(=O)CNC(=O)CC[C@@H](NC(=O)CN1CCN(CC(=O)O)CCN(CC(=O)O)CCN(CC(=O)O)CC1)C(=O)O` [[^nat/177Lu]Lu-DOTA-CCK-60, metal not drawn] ({DOTA-d(γGlu)}-GYGW[NMeNle]D[1Nal]-NH2) here?
The logD was -2.63 ± 0.05.

What about the logD7.4 [1] of the same compound?
Its logD7.4 is “‒2.7 to ‒2.1”.

What does the source list for `CCCC[C@@H](C(=O)N[C@@H](CC(=O)O)C(=O)N[C@@H](Cc1cccc2ccccc12)C(N)=O)N(C)C(=O)[C@H](Cc1c[nH]c2ccccc12)NC(=O)CNC(=O)CNC(=O)[C@H](C)NC(=O)CC[C@@H](NC(=O)CN1CCN(CC(=O)O)CCN(CC(=O)O)CCN(CC(=O)O)CC1)C(=O)O` [[^nat/177Lu]Lu-DOTA-CCK-61, metal not drawn] ({DOTA-d(γGlu)}-AGGW[NMeNle]D[1Nal]-NH2)?
logD [1]: -2.56 ± 0.09; logD7.4 [1]: ‒2.7 to ‒2.1

Which logD [1] does the source give for `CCCC[C@@H](C(=O)N[C@@H](CC(=O)O)C(=O)N[C@@H](Cc1cccc2ccccc12)C(N)=O)N(C)C(=O)[C@H](Cc1c[nH]c2ccccc12)NC(=O)CNC(=O)CN1CCN(CC(=O)O)CCN(CC(=O)O)CCN(CC(=O)O)CC1` [[^nat/177Lu]Lu-DOTA-CCK-62, DOTA-Gly-Trp-(N-Me)Nle-Asp-1-Nal-NH2, metal not drawn] ({DOTA}-GW[NMeNle]D[1Nal]-NH2) here?
The logD was -1.34 ± 0.08.

What about the logD7.4 [1] of the same compound?
The logD7.4 was “− 1.9 to − 1.2”.

With `CCCC[C@@H](C(=O)N[C@@H](CC(=O)O)C(=O)N[C@@H](Cc1cccc2ccccc12)C(N)=O)N(C)C(=O)[C@H](Cc1c[nH]c2ccccc12)NC(=O)CCOCCOCCOCCOCCOCCNC(=O)CN1CCN(CC(=O)O)CCN(CC(=O)O)CCN(CC(=O)O)CC1` [[^nat/177Lu]Lu-DOTA-CCK-63, metal not drawn] ({DOTA-PEG5}-W[NMeNle]D[1Nal]-NH2) as the compound, how does the IC50 (CCK-2R; [177Lu]Lu-DOTA-PP-F11N as reference, 37 °C, values in text, read-out: IC50 (CCK-2R affinity)) read?
The IC50 was 8.8 ± 1.3 nM.

What about the logD [1] of the same compound?
The logD was -2.13 ± 0.05.

Which logD [1] does the source give for `CCCC[C@@H](C(=O)N[C@@H](CC(=O)O)C(=O)N[C@@H](Cc1cccc2ccccc12)C(N)=O)N(C)C(=O)[C@H](Cc1c[nH]c2ccccc12)NC(=O)CNC(=O)[C@H](Cc1ccc(O)cc1)NC(=O)[C@H](C)NC(=O)CC[C@@H](NC(=O)CN1CCN(CC(=O)O)CCN(CC(=O)O)CCN(CC(=O)O)CC1)C(=O)O` [[^nat/177Lu]Lu-DOTA-γ-MGS5, DOTA-D-γ-Glu-Ala-Tyr-Gly-Trp-(N-Me)Nle-Asp-1-Nal-NH2, metal not drawn, reference compound] ({DOTA-d(γGlu)}-AYGW[NMeNle]D[1Nal]-NH2) here?
Its logD is -2.24 ± 0.04.

What about the logD7.4 [1] of the same compound?
The logD7.4 was “− 2.24 ± 0.04”.
